Results published in ChEMBL document CHEMBL6177963, “Development of acylhydrazone linked thiazoles as non-covalent dual inhibitors of SARS-CoV-2 proteases” (Eur J Med Chem, 2025).

Legend:
[1] = Inhibition of recombinant SARS-CoV-2 MPro overexpressed in Escherichia coli assessed as inhibition constant using VNSTLQISGLRLys(Dabcyl) as substrate by FRET assay; set-up: species or system Severe acute respiratory syndrome coronavirus 2
[2] = system: Severe acute respiratory syndrome coronavirus 2; assay: Inhibition of recombinant SARS-CoV-2 MPro overexpressed in Escherichia coli assessed as inhibition constant using VNSTLQISGLRLys(Dabcyl) as substrate at 10 uM by FRET assay relative to control

With CCOC(=O)c1sc(NNC(=O)c2cccs2)nc1C the Ki ([1]; read-out: Ki) was 2.4 µM.
With O=C(NNc1ncc(-c2ccc(Cl)cc2)s1)c1cccc(Cl)c1 the Ki [1] was “Not_active” and the inhibition [2] was less than 50%.
In the case of Cc1ccc(C(=O)NNc2nc(-c3ccc(C)cc3)cs2)cc1, the Ki [1] is reported as “Not_active” and the inhibition [2] is reported as less than 50%.
For CCOC(=O)c1sc(NNC(=O)c2ccccc2C)nc1C, the Ki [1] was “Not_active” and the inhibition [2] was less than 50%.
In the case of O=C(NNc1nc(-c2ccc(Br)cc2)cs1)c1ccc(Br)cc1, the Ki [1] is reported as “Not_active” and the inhibition [2] is reported as less than 50%.
For CCOC(=O)c1sc(NNC(=O)c2ccc(F)cc2)nc1C, the Ki [1] was “Not_active” and the inhibition [2] was less than 50%.
With CCOC(=O)c1sc(NNC(=O)c2ccccc2)nc1C the Ki [1] was “Not_active” and the inhibition [2] was less than 50%.
With CCOC(=O)c1sc(N/N=C/c2cc3ccccc3nc2Cl)nc1C the Ki [1] was “Not_active”.
Cc1ccc(C(=O)NNc2nc(-c3ccc(Cl)cc3)cs2)cc1 gave a Ki ([1]; read-out: Ki) of 9.37 µM.
Molecule O=C(NNc1nc(-c2ccc(Cl)cc2)cs1)c1ccc(Cl)cc1 has a Ki ([1]; read-out: Ki) of 13.4 µM.
With Cc1ccc(-c2csc(NNC(=O)c3ccc(Cl)cc3)n2)cc1 the Ki [1] was “Not_active” and the inhibition [2] was less than 50%.
With CCOC(=O)c1sc(NNC(=O)c2cccc(Br)c2)nc1C the Ki [1] was “Not_active” and the inhibition [2] was less than 50%.
For CCOC(=O)c1sc(NNC(=O)c2ccco2)nc1C, the Ki [1] was “Not_active” and the inhibition [2] was less than 50%.
With O=C(NNc1nc(-c2ccc(Cl)cc2)cs1)c1ccc(Br)cc1 the Ki [1] was “Not_active” and the inhibition [2] was less than 50%.
With O=C(NNc1nc(-c2ccc(Br)cc2)cs1)c1ccccc1 the Ki [1] was “Not_active” and the inhibition [2] was less than 50%.
In the case of CCOC(=O)c1sc(NNC(=O)c2ccc3ccccc3c2)nc1C, the Ki [1] is reported as “Not_active” and the inhibition [2] is reported as less than 50%.
In the case of O=C(NNc1ncc(-c2ccc(Cl)cc2)s1)c1ccc2ccccc2c1, the Ki [1] is reported as “Not_active” and the inhibition [2] is reported as less than 50%.
With CCOC(=O)c1sc(NNC(=O)c2ccc(Cl)cc2)nc1C the Ki ([1]; read-out: Ki) was 14.9 µM.
In the case of O=C(NNc1nc(-c2ccc(Br)cc2)cs1)c1ccc(F)cc1, the Ki ([1]; read-out: Ki) is reported as 4.28 µM.
In the case of O=C(NNc1nc(-c2ccc(Br)cc2)cs1)c1ccc([N+](=O)[O-])cc1, the Ki [1] is reported as “Not_active” and the inhibition [2] is reported as less than 50%.
For CCOC(=O)c1sc(NNC(=O)c2ccccc2OC)nc1C, the Ki [1] was “Not_active” and the inhibition [2] was less than 50%.
In the case of COC(=O)c1sc(NNC(=O)c2ccc([N+](=O)[O-])cc2)nc1C, the Ki [1] is reported as “Not_active” and the inhibition [2] is reported as less than 50%.
For Cc1ccc(-c2csc(NNC(=O)c3ccc(Br)cc3)n2)cc1, the Ki [1] was “Not_active” and the inhibition [2] was less than 50%.
For O=C(NNc1nc(-c2ccc(Br)cc2)cs1)c1ccc(Cl)cc1, the Ki [1] was “Not_active” and the inhibition [2] was less than 50%.
With Cc1ccc(C(=O)NNc2nc(-c3ccc(Br)cc3)cs2)cc1 the Ki [1] was “Not_active” and the inhibition [2] was less than 50%.
Oc1ccc(/C=N/Nc2nc(-c3ccc(Cl)cc3)cs2)cc1 gave a Ki ([1]; read-out: Ki) of 18.8 µM.
For Cc1ccc(-c2csc(NNC(=O)c3ccc([N+](=O)[O-])cc3)n2)cc1, the Ki ([1]; read-out: Ki) was 44.7 µM.
Molecule O=C(NNc1nc(-c2ccc(Cl)cc2)cs1)c1ccc(F)cc1 has a Ki ([1]; read-out: Ki) of 10.6 µM.
O=c1c2ccccc2[se]n1-c1ccccc1 [EBSELEN] gave a Ki ([1]; read-out: Ki) of 0.486 µM.
For Clc1nc2ccccc2cc1/C=N/Nc1nc(-c2ccccc2)cs1, the Ki [1] was “Not_active” and the inhibition [2] was less than 50%.
With CCOC(=O)c1sc(NNC(=O)/C=C/c2ccccc2)nc1C the Ki ([1]; read-out: Ki) was 1.1 µM.
With Cc1ccc(-c2csc(NNC(=O)c3ccc(F)cc3)n2)cc1 the Ki ([1]; read-out: Ki) was 11.1 µM.
CCOC(=O)c1sc(NNC(=O)c2ccc([N+](=O)[O-])cc2)nc1C gave a Ki ([1]; read-out: Ki) of 0.73 µM.
For CCOC(=O)c1sc(NNC(=O)c2ccc(C)cc2)nc1C, the Ki [1] was “Not_active” and the inhibition [2] was less than 50%.
With CCOC(=O)c1sc(NNC(=O)c2cccc(Cl)c2)nc1C the Ki [1] was “Not_active” and the inhibition [2] was less than 50%.
For CCOC(=O)c1sc(NNC(=O)c2ccc(Br)cc2)nc1C, the Ki ([1]; read-out: Ki) was 4.58 µM.
